Measured values published in ChEMBL document CHEMBL4364344, “Design, synthesis and evaluation of activity and pharmacokinetic profile of new derivatives of xanthone and piperazine in the central nervous system” (Bioorg Med Chem Lett, 2019).

Tests used:
[1] = molecular target: 5-hydroxytryptamine receptor 2B (Homo sapiens, UniProt P41595); test: Displacement of [125I](+/-)DOI from recombinant human 5-HT2B receptor after 60 mins by radiometric scintillation analysis
[2] = molecular target: Neurotensin receptor type 1 (Homo sapiens) (UniProt P30989); test: Displacement of [125I]Tyr3-neurotensin from human NSTR1 receptor at 10 uM after 60 mins by radiometric scintillation analysis relative to control
Rattus norvegicus [3] = organism: Rattus norvegicus; test: Displacement of [3H]-Flumazenil from GABAA/BZD receptor in rat cortical membranes incubated for 60 mins by radioligand binding assay relative to control; assay type: cell membranes
[4] = AUC (0 to total) in CD-1 mouse brain at 5 mg/kg, ip measured up to 480 mins by LC/ESI-MS/MS analysis; assay type: ADME, organism-based; settings: in vivo, 8 h
[5] = Mutagenicity in Salmonella typhimurium TA102 at 5 ug/plate preincubated for 20 mins followed by addition of top agar and measured after 48 hrs by Ames test; assay type: toxicity; settings: salmonella enterica subsp. enterica serovar typhimurium
[6] = molecular target: D(1A) dopamine receptor (Homo sapiens) (UniProt P21728); test: Displacement of [3H]SCH 23390 from recombinant human D1 dopamine receptor at 10 uM after 60 mins by radiometric scintillation analysis relative to control
[7] = molecular target: Muscarinic acetylcholine receptor M1 (Homo sapiens) (UniProt P11229); test: Displacement of [3H]pirenzepine from recombinant human M1 receptor at 10 uM after 60 mins by radiometric scintillation analysis relative to control
[8] = molecular target: T1, 5-hydroxytryptamine receptor 2A (Homo sapiens, UniProt P28223); test: Displacement of [3H]ketanserin from recombinant human 5-HT2A receptor after 60 mins by radiometric scintillation analysis
[9] = molecular target: Nociceptin receptor (Homo sapiens) (UniProt P41146); test: Displacement of [3H]nociceptin from recombinant human ORL1 receptor at 10 uM after 60 mins by radiometric scintillation analysis relative to control
[10] = molecular target: Beta-1 adrenergic receptor (Homo sapiens) (UniProt P08588); test: Displacement of [3H](-)CGP 12177 from recombinant human beta1 receptor at 10 uM after 60 mins by radiometric scintillation analysis relative to control
[11] = molecular target: Adenosine receptor A1 (Homo sapiens) (UniProt P30542); test: Displacement of [3H]DPCPX from recombinant human A1 receptor at 10 uM after 60 mins by radiometric scintillation analysis relative to control
[12] = molecular target: T1, 5-hydroxytryptamine receptor 2A; test: Displacement of [3H]ketanserin from recombinant human 5-HT2A receptor at 10 uM after 60 mins by radiometric scintillation analysis relative to control
[13] = molecular target: Muscarinic acetylcholine receptor M2 (Homo sapiens) (UniProt P08172); test: Displacement of [3H]AF-DX 384 from recombinant human M2 receptor at 10 uM after 60 mins by radiometric scintillation analysis relative to control
[14] = molecular target: Histamine H2 receptor (Homo sapiens) (UniProt P25021); test: Displacement of [125I]APT from recombinant human H2 histamine receptor at 10 uM after 120 mins by radiometric scintillation counting analysis relative to control
[15] = molecular target: Substance-K receptor (Homo sapiens) (UniProt P21452); test: Displacement of [125I]NKA from recombinant human NK2 receptor at 10 uM after 60 mins by radiometric scintillation analysis relative to control
[16] = Mutagenicity in Salmonella typhimurium TA102 at 250 ug/plate preincubated for 20 mins followed by addition of top agar and measured after 48 hrs by Ames test; assay type: toxicity; settings: salmonella enterica subsp. enterica serovar typhimurium
[17] = molecular target: Neuromedin-K receptor (Homo sapiens) (UniProt P29371); test: Displacement of [3H]SR 142801 from recombinant human NK3 receptor at 10 uM after 120 mins by radiometric scintillation analysis relative to control
[18] = molecular target: Mu-type opioid receptor (Homo sapiens) (UniProt P35372); test: Displacement of [3H]DAMGO from recombinant human MOR receptor at 10 uM after 120 mins by radiometric scintillation analysis relative to control
[19] = Apparent volume of distribution in CD-1 mouse plasma at 5 mg/kg, ip measured up to 480 mins by LC/ESI-MS/MS analysis; assay type: ADME, organism-based
Rattus norvegicus [20] = organism: Rattus norvegicus; test: Displacement of [3H]batrachotoxinin from rat brain sodium channel site 2 at 10 uM after 60 mins by scintillation counting analysis relative to control relative to control
[21] = molecular target: Somatostatin receptor type 4 (Mus musculus) (UniProt P49660); test: Displacement of [125I]Tyr11-somatostatin-14 from mouse SST4 receptor at 10 uM after 120 mins by radiometric scintillation analysis relative to control
[22] = molecular target: Cannabinoid receptor 1 (Homo sapiens) (UniProt P21554); test: Displacement of [3H]CP 55940 from recombinant human CB1 receptor at 10 uM by radiometric scintillation analysis relative to control
[23] = molecular target: Serotonin 3 (5-HT3) receptor (Homo sapiens) (UniProt P46098+A5X5Y0+O95264+Q70Z44+Q8WXA8); test: Displacement of [3H]BRL 43694 from recombinant human 5-HT3 receptor at 10 uM after 120 mins by radiometric scintillation analysis relative to control; assay type: protein-complex assay
Mus musculus = test: Anxiolytic activity in albino Swiss CD-1 mouse assessed as increase in number of punished crossings at 10 mg/kg, ip administered 30 mins prior to test by four-plate test relative to control; assay type: functional
[24] = molecular target: Neuropeptide Y receptor type 2 (Homo sapiens) (UniProt P49146); test: Displacement of [125I]peptide YY from human Y2 receptor at 10 uM after 60 mins by radiometric scintillation analysis relative to control
[25] = molecular target: Sodium-dependent dopamine transporter (Homo sapiens) (UniProt Q01959); test: Displacement of [3H]BTCP recombinant human dopamine transporter at 10 uM after 120 mins by radiometric scintillation analysis relative to control
[26] = Cmax in CD-1 mouse plasma at 5 mg/kg, ip measured up to 480 mins by LC/ESI-MS/MS analysis; assay type: ADME, organism-based; set-up: dose 5 mg/kg, route intraperitoneal
[27] = Terminal half life in CD-1 mouse brain at 5 mg/kg, ip measured up to 480 mins by LC/ESI-MS/MS analysis; assay type: ADME, organism-based; settings: read-out: beta t1/2
[28] = molecular target: Adenosine receptor A3 (Homo sapiens) (UniProt P0DMS8); test: Displacement of [125I]AB-MECA from recombinant human A3 receptor at 10 uM after 120 mins by radiometric scintillation analysis relative to control
[29] = molecular target: Galanin receptor type 2 (Homo sapiens) (UniProt O43603); test: Displacement of [125I]galanin from recombinant human GAL2 receptor at 10 uM after 120 mins by radiometric scintillation analysis relative to control
[30] = Ratio of drug uptake in CD-1 mouse brain to plasma at 5 mg/kg, ip measured up to 480 mins by LC/ESI-MS/MS analysis; assay type: ADME, organism-based; settings: read-out: BPR
[31] = molecular target: B2 bradykinin receptor (Homo sapiens) (UniProt P30411); test: Displacement of [3H]bradykinin from recombinant human B2 receptor at 10 uM after 60 mins by radiometric scintillation analysis relative to control
Rattus norvegicus [32] = organism: Rattus norvegicus; test: Displacement of [125I]alpha-dendrotoxin rat brain voltage-gated potassium channel at 10 uM after 60 mins by radiometric scintillation analysis relative to control

T1 sequence (P28223 whole entry): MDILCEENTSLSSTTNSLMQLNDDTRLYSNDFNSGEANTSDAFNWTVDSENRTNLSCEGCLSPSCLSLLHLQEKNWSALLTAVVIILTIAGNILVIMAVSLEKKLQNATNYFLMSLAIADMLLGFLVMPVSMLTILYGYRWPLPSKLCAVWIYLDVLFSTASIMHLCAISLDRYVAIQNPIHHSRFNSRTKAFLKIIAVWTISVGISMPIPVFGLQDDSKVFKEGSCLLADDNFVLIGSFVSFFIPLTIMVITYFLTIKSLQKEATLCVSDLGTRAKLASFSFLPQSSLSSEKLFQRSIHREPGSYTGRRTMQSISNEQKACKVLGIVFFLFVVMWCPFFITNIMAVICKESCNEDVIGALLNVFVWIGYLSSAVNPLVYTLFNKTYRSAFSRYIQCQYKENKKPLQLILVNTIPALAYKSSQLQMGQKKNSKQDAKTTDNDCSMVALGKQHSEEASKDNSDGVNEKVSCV
Neurotensin receptor type 1 (Homo sapiens), sequence (P30989 whole entry): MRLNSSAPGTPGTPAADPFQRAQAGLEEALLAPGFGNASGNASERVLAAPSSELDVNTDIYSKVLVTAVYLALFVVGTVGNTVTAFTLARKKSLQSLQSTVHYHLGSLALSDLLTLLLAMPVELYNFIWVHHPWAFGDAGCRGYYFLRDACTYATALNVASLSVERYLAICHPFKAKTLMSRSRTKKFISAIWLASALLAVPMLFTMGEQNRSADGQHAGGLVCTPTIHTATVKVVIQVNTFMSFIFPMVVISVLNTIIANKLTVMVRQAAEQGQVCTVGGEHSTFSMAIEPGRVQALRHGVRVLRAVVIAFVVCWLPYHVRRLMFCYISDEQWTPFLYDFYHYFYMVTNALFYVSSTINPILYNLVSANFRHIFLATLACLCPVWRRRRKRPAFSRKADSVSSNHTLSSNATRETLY
Histamine H2 receptor (Homo sapiens), sequence (P25021 whole entry): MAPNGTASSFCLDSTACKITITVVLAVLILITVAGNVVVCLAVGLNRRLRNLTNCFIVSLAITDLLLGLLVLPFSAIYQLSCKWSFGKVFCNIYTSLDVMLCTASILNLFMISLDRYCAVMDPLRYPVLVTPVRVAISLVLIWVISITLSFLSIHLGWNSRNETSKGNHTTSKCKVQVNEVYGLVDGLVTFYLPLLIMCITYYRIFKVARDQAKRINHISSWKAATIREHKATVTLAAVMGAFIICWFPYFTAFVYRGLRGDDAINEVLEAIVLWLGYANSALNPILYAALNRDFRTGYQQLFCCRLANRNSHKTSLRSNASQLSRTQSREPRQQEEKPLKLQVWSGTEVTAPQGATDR
Sodium-dependent dopamine transporter (Homo sapiens), sequence (Q01959 whole entry): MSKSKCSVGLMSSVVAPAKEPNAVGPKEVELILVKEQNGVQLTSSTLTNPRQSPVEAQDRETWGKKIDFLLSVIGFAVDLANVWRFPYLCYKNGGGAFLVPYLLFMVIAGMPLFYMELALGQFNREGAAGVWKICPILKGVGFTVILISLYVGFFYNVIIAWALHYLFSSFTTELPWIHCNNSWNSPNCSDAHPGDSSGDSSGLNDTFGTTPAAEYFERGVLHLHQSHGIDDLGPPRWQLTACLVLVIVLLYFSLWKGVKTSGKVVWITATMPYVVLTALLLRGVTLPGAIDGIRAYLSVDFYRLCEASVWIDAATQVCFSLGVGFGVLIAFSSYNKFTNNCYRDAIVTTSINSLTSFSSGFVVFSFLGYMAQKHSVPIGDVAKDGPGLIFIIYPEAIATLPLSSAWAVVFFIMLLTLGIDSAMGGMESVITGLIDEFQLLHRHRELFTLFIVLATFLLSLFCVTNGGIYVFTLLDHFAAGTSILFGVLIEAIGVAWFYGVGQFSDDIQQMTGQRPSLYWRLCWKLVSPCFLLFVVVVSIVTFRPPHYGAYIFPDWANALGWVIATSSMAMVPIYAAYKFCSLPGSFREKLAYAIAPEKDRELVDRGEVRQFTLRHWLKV
Mu-type opioid receptor (Homo sapiens), sequence (P35372 whole entry): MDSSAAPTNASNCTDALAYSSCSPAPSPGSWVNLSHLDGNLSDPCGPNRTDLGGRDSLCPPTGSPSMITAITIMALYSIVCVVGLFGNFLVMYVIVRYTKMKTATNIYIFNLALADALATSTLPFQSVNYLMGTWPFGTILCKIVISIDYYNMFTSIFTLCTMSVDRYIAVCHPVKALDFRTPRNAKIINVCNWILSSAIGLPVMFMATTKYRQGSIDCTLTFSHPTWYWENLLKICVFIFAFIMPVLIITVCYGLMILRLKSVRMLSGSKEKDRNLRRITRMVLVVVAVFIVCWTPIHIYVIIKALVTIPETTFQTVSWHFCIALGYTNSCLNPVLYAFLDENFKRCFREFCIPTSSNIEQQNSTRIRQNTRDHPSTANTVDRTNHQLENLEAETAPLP
Muscarinic acetylcholine receptor M2 (Homo sapiens), sequence (P08172 whole entry): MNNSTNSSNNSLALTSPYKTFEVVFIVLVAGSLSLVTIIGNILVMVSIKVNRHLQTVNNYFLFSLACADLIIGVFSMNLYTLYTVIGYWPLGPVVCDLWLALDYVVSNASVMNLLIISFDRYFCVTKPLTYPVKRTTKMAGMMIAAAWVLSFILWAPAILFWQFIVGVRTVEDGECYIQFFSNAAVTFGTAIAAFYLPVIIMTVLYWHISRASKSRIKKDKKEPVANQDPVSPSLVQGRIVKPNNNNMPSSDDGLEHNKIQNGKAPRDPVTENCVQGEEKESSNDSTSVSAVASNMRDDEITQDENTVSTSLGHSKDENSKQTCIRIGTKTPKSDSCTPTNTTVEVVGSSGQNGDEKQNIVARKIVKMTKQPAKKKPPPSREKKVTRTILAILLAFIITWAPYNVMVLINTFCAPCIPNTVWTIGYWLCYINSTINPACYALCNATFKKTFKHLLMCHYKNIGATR
Adenosine receptor A1 (Homo sapiens), sequence (P30542 whole entry): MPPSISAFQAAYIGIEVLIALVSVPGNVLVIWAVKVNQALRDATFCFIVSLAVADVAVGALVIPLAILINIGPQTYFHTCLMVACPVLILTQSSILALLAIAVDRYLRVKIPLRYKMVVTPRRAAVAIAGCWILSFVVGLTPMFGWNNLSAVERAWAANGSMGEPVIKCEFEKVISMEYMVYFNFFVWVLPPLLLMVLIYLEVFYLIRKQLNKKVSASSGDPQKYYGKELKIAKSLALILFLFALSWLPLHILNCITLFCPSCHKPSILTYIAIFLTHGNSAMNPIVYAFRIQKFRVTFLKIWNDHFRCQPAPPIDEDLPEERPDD
Muscarinic acetylcholine receptor M1 (Homo sapiens), sequence (P11229 whole entry): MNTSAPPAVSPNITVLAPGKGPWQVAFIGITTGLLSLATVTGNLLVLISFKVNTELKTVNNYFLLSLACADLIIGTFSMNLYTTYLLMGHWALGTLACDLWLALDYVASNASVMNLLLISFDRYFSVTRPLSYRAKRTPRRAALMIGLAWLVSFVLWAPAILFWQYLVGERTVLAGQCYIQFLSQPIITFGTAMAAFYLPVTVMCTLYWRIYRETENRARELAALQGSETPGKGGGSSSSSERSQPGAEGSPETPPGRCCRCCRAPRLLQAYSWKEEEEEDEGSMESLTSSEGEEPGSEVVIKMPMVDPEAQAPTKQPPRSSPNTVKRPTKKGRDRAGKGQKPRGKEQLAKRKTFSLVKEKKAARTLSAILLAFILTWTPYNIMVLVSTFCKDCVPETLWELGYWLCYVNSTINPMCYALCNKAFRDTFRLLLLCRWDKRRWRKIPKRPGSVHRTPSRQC
Substance-K receptor (Homo sapiens), sequence (P21452 whole entry): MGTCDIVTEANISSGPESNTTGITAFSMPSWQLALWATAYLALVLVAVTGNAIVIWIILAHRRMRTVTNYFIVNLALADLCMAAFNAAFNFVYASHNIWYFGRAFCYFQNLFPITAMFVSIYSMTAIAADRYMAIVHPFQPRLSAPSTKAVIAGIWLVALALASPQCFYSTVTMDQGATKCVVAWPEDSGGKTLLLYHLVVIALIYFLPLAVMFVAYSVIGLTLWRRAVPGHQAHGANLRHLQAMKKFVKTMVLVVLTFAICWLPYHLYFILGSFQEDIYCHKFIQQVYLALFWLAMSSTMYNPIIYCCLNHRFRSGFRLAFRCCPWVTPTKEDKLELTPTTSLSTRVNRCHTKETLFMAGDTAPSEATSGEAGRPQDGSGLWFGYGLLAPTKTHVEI
Somatostatin receptor type 4 (Mus musculus), sequence (P49660 as listed by the source): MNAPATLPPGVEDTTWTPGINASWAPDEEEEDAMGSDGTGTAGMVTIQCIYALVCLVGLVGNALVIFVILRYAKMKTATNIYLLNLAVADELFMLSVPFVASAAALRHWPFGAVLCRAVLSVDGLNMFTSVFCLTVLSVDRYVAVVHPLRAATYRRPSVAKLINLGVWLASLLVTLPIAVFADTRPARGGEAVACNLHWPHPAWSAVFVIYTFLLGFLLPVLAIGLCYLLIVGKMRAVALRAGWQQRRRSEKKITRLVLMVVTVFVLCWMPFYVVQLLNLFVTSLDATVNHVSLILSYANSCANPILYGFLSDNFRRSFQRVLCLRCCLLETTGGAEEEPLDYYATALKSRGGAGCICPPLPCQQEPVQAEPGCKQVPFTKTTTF
5-hydroxytryptamine receptor 2B, sequence (P41595 whole entry): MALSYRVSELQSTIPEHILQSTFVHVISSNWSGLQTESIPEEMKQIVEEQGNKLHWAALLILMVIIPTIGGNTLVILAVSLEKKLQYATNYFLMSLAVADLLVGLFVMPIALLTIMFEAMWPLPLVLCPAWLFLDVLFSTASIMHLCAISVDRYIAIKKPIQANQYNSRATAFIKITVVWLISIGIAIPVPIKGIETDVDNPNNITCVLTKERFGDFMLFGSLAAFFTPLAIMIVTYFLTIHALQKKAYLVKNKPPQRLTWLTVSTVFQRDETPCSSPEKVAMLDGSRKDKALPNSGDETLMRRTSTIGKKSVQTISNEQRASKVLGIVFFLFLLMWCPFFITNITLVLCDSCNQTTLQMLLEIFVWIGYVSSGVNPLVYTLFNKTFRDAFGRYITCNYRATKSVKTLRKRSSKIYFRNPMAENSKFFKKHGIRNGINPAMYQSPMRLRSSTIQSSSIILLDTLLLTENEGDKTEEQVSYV

Structure (SMILES): Cl.Cl.O=c1c2cc(Cl)ccc2oc2ccc(CN3CCN(CCOCCO)CC3)cc12
- Ki [1]: 2.9 µM
- inhibition [2]: -3.5%
- inhibition (Rattus norvegicus [3]): 9.4%
- AUCt [4]: 3227321 ng·min/g
- Activity_index [5]: 0.93
- inhibition [6]: 8.9%
- inhibition [7]: 52.3%
- Ki [8]: 2.02 µM
- inhibition [9]: 6.5%
- inhibition [10]: 2.3%
- inhibition [11]: 0.6%
- inhibition [12]: 62.8%
- inhibition [13]: 35.9%
- inhibition [14]: 10.3%
- inhibition [15]: 49.4%
- Activity_index [16]: 1.28
- inhibition [17]: 3.2%
- inhibition [18]: 11.8%
- Vd/F [19]: 3.06 L/kg
- inhibition (Rattus norvegicus [20]): 78.7%
- inhibition [21]: -2.9%
- inhibition [22]: -0.1%
- inhibition [23]: 5.5%
- Activity (Mus musculus): 50.1%
- inhibition [24]: 3.1%
- inhibition [25]: 28.7%
- Cmax [26]: 1920 ng/mL
- half-life [27]: 2.88 h
- inhibition [28]: 42.9%
- inhibition [29]: 1.4%
- Kp at 8 h [30]: 9.79
- inhibition [31]: -7%
- inhibition (Rattus norvegicus [32]): -3.1%
